# “Also recorded” adds a separate entry of the source. Like-named read-outs stand apart in the source and are kept apart here.
# Legend:
# [1] = target: T1, S. aureus staphopain A (ScpA) (Staphylococcus aureus, UniProt P81297); type: in vitro ADME; conditions: gel-electrophoresis (10-20% Tricine gel); MS detected cleavage of minor fragments
# T1 construct: purchased Preparatis (Krakow, Poland)
# T1 sequence (P81297 215-388): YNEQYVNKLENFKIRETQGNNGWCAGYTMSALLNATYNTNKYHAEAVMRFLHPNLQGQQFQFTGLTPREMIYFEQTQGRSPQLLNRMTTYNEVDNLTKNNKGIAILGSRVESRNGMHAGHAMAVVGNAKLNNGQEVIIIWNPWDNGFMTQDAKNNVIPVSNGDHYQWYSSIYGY
# Protocol: (§1) Proteolytic degradation of LL-37 and SDS-PAGE analysis (See Supplementary Methods S1).
# Matrix-assisted laser desorption ionization mass spectrometry (MALDI-MS) was used for the identification of […] generated peptides of LL-37. A MALDI matrix solution consisting of 5 mg/ml hydroxycinnamic acid in 50% acetonitrile, 0.1% (v/v) phosphoric acid[67] was mixed with the staphopain-generated peptides. The matrix solution contained two peptide standards [des-arg-bradykinin (m/z 904.468) and ACTH 18–39 (m/z 2465.199)] that were used for internal mass calibration in every analyte/matrix position. MALDI-MS and MS/MS analyses of the samples were performed on a 4700 Proteomics Analyzer MALDI-TOF/TOF™ mass spectrometer (Applied Biosystems, Framingham, MA). Database searching was carried out using Mascot (Matrix Science) with Swissprot as the database and with a peptide mass tolerance of 50 ppm and a fragment mass tolerance of 0.2 Da. […]
# labeled LL-37) and green (S. aureus cells) seen separately, and yellow representing co-existence of bacterial cells and the TAMRA-labeled LL-37 peptide. Binding of TAMRA labeled LL-37 to the S. aureus cells were present throughout the biofilm. […]
# Supplementary Fig. S5. […] LL-37 was incubated with and without S. aureus ScpA and analyzed using SDS-PAGE (Novex®10-20% Tricine Gel) (a), and by mass spectrometry (b). […]
# [2] = test system: planktonic S. aureus (isolates from skin of patients with AD and ATCC 29213); type: cell-based, Staphylococcus aureus; conditions: summary over the tested S. aureus strains
# Protocol: Measurement of the bacterial susceptibility was determined by using a modified version of the CBD method (MBEC^TM Biofilm Inoculator, Innovotech, Edmonton, Canada)[59] following the manufacturers protocol. Briefly, to establish biofilms in vitro using the CBD, 150 μl bacterial solution of 10^5 CFU/ml in 1.5% tryptic soy broth (TSB) was supplemented with 0.3% glucose and aliquoted into each well of the MBEC plate and thereafter incubated for 24 h in a rotary incubator at 37 °C and 180 rpm. This allowed the biofilm to form on the pegs. The pegs with established biofilms were then washed once in sterile PBS (200 μl/well). […]
# The MIC values measured using the CBD are equivalent to MIC values obtained using the National Committee for Clinical Laboratory Standards (NCCLS) procedure. The MIC value, representing the concentration required to inhibit growth of planktonic bacteria, was determined from bacteria that were shed from the pegs when the lid of the CBD was placed in different concentrations of LL-37. […] MBECs were determined by analyzing the bacterial viability in the biofilm after 24 h of incubation at 37 °C either by reading the turbidity at 600 nm in a 96-well plate reader (Victor[3] 1420 multilabel counter, Perkin-Elmer) or by obtaining bacterial plate counts. The recorded MIC and MBEC values represent a typical result of three independent experiments.
# [3] = target: T2, S. aureus staphopain B (SspB) (Staphylococcus aureus, UniProt P0C1S6); assay: Proteolytic degradation of LL-37 by staphopain B, SDS-PAGE and MS; type: in vitro ADME; conditions: LL-37 3 μg with staphopain B 0.6 μg in 30 μl, 3 h, 37 °C; SDS-PAGE (10-20% Tricine gel), MALDI-MS
# T2 construct: purchased Sigma-Aldrich
# T2 sequence (P0C1S6 220-393): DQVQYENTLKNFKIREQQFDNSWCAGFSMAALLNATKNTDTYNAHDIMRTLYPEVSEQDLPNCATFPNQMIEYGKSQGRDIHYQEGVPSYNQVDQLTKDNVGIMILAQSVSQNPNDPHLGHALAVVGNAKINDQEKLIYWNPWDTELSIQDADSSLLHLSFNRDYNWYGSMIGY
# Protocol: as §1
# Matrix-assisted laser desorption ionization mass spectrometry (MALDI-MS) was used for the identification of trypsin generated peptides of LL-37. A MALDI matrix solution consisting of 5 mg/ml hydroxycinnamic acid in 50% acetonitrile, 0.1% (v/v) phosphoric acid[67] was mixed with the staphopain-generated peptides. The matrix solution contained two peptide standards [des-arg-bradykinin (m/z 904.468) and ACTH 18–39 (m/z 2465.199)] that were used for internal mass calibration in every analyte/matrix position. […]
# LL-37 (3 µg), was incubated with S. aureus staphopain B (0.6 µg) (Sigma-Aldrich, St. Louis, MO, USA) in a total volume of 30 µl for 3 h at 37 ° C. […] The materials were subsequently analysed on Novex®10-20% Tricine Gel (Life technologies, Carlsbad, CA, USA) under reducing conditions. […]
# The NF-κB/AP-1 reporter cell line THP1-XBlue™ -CD14, derived from the human monocytic THP-1 cell line, (InvivoGen, San Diego, CA, USA) was cultured according to the manufacturer’s protocol. […] NF-κB/AP-1 activation was assessed by using QUANTI-Blue™ assay according to the instructions supplied by the manufacturer. Secreted embryonic alkaline phosphatase (SEAP) was produced by the cell line upon stimulation and assessed by a SEAP detection reagent in cell supernatants. Absorbance at 600 nm was then detected. […]
# [4] = published peptide, cited from earlier work
# Text: Table 2 A selection of published peptide sequences derived from LL-37 with immune-modulating actions, and examples of their biological effects. | column: Biological activity
# staphopain B (SspB) = assay: S. aureus staphopain B (0.6 µg) (Sigma-Aldrich) in a total volume of 30 µl; conditions: 37 °C, up to 3 h
molecule,measurement,setting,value
CC[C@H](C)[C@H](NC(=O)[C@H](CCCCN)NC(=O)[C@H](CCC(=O)O)NC(=O)[C@H](CCCCN)NC(=O)[C@H](CO)NC(=O)[C@H](CCCCN)NC(=O)[C@H](CCCNC(=N)N)NC(=O)[C@H](Cc1ccccc1)NC(=O)[C@H](Cc1ccccc1)NC(=O)[C@H](CC(=O)O)NC(=O)CNC(=O)[C@H](CC(C)C)NC(=O)[C@@H](N)CC(C)C)C(=O)NCC(=O)N[C@@H](CCCCN)C(=O)N[C@@H](CCC(=O)O)C(=O)N[C@@H](Cc1ccccc1)C(=O)N[C@@H](CCCCN)C(=O)N[C@@H](CCCNC(=N)N)C(=O)N[C@H](C(=O)N[C@H](C(=O)N[C@@H](CCC(N)=O)C(=O)N[C@@H](CCCNC(=N)N)C(=O)N[C@H](C(=O)N[C@@H](CCCCN)C(=O)N[C@@H](CC(=O)O)C(=O)N[C@@H](Cc1ccccc1)C(=O)N[C@@H](CC(C)C)C(=O)N[C@@H](CCCNC(=N)N)C(=O)N[C@@H](CC(N)=O)C(=O)N[C@@H](CC(C)C)C(=O)N[C@H](C(=O)N1CCC[C@H]1C(=O)N[C@@H](CCCNC(=N)N)C(=O)N[C@H](C(=O)N[C@@H](CCC(=O)O)C(=O)N[C@@H](CO)C(=O)O)[C@@H](C)O)C(C)C)[C@@H](C)CC)C(C)C)[C@@H](C)CC [LL-37],degradation by ScpA,[1],did not reveal any obvious major cleavage
same,MIC values obtained for planktonic cells,[2],10 to 20 µM
same,degradation by SspB,[3],degraded into fragments of lower molecular weight
"GDFFRKSK EKIGKEFKRI VQRIKDFLRN LVPRTES [F106, published fragment (F) derived from LL-37]",Biological activity,[4]; ref [29],"AM, IM^2"
GKEFKRI VQRIKDFLRN LVPR (GKEFKRIVQRIKDFLRNLVPR),Biological activity,[4]; ref [24],"AM, IM^1c,2"
IGKEFKRI VQRIKDFLRN L [IG-19],Biological activity,"[4]; ref [27], [28]","IM^1b,2,5"
IGKEFKRI VQRIKDFLRN LVPRTES [IG-25],Biological activity,[4]; ref [27],"IM^1b,3"
KSK EKIGKEFKRI VQRIKDFLRN LVPRTES [KS-30],Biological activity,"[4]; ref [23], [25], [26]","AM, IM^3,4"
LLGDFFRKSK EKIGKEFKRI V,Biological activity,[4]; ref [24],"AM, IM^2"
LLGDFFRKSKEKIGKEFKRIVQRIK [LL-25],Biological activity,[4]; ref [27],IM^1b
LLGDFFRKSKEKIGKEFKRIVQRIKDFLRNL [LL-31],Biological activity,[4]; ref [27],"IM^1b,3"
LLGDFFRKSKEKIGKEFKRIVQRIKDFLRNLVPRTES,cleaved bond,staphopain B (SspB); S. aureus,E11-K12; also recorded: E16-F17; also recorded: D26-F27; also recorded: L28-R29
same,fragment found,staphopain B (SspB); Staphylococcus aureus,"LLG16, minor"
RKSK EKIGKEFKRI VQRIKDFLRN L [RK-25],Biological activity,[4]; ref [27],"IM^1b,3"
"RKSK EKIGKEFKRI VQRIKDFLRN LVPRTES [F110, published fragment (F) derived from LL-37]",Biological activity,[4]; ref [29],"AM, IM^1c,2"
RKSK EKIGKEFKRI VQRIKDFLRN LVPRTES [RK-31],Biological activity,"[4]; ref [23], [25]","AM, IM^3"

# Reference: PMC5562790 (Scientific Reports, 2017)
